Assay [1] deals with ALK tyrosine kinase receptor (Homo sapiens) (UniProt Q9UM73). Briefly: Inhibition of ALK at 1 uM relative to control; values are per cent of control.
The target of assay [2] is T1, Serine/threonine-protein kinase 3 (Homo sapiens) (UniProt Q13188).
T1 sequence (whole entry): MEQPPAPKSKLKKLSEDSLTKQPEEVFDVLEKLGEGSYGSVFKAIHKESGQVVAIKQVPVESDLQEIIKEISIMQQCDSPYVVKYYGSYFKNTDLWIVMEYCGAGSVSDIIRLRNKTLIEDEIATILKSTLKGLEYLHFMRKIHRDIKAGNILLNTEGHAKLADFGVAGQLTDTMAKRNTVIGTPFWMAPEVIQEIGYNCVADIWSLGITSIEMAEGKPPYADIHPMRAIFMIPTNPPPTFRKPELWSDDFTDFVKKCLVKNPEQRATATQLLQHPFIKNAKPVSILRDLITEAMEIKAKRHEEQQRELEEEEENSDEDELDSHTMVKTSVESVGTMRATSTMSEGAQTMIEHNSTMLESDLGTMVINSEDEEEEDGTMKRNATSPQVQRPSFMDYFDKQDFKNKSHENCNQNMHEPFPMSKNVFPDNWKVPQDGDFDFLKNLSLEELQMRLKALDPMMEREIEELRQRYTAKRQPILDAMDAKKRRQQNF
Briefly: Inhibition of human MST2 at 1 uM relative to control; values are per cent of control.

For assay [3], the target named is T2, MAP kinase-activated protein kinase 5 (Homo sapiens) (UniProt Q8IW41).
T2 sequence (whole entry): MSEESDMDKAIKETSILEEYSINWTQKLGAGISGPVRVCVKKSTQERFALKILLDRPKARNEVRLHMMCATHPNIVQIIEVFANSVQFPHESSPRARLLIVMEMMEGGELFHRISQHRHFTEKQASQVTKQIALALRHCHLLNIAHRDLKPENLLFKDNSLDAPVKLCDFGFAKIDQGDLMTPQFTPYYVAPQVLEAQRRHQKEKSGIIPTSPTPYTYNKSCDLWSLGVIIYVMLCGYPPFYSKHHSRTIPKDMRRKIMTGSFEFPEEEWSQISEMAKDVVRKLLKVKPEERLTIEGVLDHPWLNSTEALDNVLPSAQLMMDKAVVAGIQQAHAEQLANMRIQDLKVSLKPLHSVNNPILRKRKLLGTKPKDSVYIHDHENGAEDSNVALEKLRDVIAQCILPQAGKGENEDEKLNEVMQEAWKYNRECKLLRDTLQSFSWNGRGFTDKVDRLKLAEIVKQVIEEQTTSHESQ
Briefly: Inhibition of human PRAK at 1 uM relative to control; values are per cent of control.

Assay [4] concerns the target T3, Inhibitor of nuclear factor kappa-B kinase subunit beta (Homo sapiens) (UniProt O14920).
T3 sequence (whole entry): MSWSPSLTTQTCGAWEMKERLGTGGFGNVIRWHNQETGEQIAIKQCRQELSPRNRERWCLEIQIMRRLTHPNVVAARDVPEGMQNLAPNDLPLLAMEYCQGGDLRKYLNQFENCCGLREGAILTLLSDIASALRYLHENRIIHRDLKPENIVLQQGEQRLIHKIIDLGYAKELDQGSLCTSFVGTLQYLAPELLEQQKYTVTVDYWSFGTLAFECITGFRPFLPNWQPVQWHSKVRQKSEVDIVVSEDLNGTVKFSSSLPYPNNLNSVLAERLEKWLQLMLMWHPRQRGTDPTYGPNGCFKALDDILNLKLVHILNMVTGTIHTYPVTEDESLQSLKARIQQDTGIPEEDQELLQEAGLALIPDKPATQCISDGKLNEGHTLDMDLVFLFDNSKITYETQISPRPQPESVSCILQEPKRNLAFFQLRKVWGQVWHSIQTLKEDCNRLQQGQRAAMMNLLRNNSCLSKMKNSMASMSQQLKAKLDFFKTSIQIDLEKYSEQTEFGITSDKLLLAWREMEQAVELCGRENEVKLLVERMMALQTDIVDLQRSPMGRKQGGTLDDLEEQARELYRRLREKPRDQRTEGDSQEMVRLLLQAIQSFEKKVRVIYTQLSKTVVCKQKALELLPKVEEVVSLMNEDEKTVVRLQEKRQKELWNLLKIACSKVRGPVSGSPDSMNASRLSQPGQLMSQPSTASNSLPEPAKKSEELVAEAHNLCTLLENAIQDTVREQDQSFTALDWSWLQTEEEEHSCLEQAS
Briefly: Residual activity of human IKK-beta at 1 uM relative to control.

Assay [5] deals with Rho-associated protein kinase 2 (Homo sapiens) (UniProt O75116). Briefly: Inhibition of human ROCK2 at 1 uM relative to control; values are per cent of control.
Sequence of Rho-associated protein kinase 2 (Homo sapiens) (O75116 whole entry, looked up): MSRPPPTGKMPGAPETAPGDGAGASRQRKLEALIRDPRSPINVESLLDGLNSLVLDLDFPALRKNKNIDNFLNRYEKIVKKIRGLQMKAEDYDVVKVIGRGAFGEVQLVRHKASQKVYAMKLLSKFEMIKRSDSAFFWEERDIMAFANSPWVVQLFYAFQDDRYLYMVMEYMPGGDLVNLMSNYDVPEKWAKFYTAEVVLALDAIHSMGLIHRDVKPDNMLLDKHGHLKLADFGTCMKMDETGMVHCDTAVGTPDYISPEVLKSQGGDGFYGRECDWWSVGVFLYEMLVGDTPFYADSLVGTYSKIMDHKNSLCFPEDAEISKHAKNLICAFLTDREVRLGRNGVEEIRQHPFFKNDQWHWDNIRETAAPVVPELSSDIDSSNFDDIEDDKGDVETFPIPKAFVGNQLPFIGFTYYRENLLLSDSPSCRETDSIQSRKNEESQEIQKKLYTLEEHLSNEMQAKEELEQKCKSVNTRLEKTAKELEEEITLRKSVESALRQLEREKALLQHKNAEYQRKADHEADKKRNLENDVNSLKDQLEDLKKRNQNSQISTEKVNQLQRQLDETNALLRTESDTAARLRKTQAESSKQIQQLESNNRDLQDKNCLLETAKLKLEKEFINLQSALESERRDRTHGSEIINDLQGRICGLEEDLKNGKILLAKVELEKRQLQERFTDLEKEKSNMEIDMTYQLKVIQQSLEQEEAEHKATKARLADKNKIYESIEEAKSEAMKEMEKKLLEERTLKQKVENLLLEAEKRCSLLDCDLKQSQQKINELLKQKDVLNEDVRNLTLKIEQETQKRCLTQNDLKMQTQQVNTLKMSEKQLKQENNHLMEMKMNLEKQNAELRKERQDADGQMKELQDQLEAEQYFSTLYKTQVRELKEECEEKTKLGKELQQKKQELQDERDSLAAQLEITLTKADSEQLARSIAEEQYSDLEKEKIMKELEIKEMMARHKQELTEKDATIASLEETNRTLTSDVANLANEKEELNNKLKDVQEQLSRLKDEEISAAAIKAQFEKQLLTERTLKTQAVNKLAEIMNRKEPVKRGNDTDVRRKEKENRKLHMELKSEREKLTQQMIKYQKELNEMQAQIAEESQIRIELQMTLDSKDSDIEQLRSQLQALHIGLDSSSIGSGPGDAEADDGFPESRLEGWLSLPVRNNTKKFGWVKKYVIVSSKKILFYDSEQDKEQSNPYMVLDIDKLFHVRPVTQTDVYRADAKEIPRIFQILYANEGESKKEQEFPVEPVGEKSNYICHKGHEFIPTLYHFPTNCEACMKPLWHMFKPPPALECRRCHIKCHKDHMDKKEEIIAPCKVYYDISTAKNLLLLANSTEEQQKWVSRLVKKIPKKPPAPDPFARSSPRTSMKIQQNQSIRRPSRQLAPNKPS
Assay [6] addresses Platelet-derived growth factor receptor alpha (Homo sapiens) (UniProt P16234). Briefly: Inhibition of human PDGFRalpha at 1 uM relative to control; values are per cent of control.
The target of assay [7] is T4, Serine/threonine-protein kinase D1 (Homo sapiens) (UniProt Q15139).
T4 sequence (whole entry): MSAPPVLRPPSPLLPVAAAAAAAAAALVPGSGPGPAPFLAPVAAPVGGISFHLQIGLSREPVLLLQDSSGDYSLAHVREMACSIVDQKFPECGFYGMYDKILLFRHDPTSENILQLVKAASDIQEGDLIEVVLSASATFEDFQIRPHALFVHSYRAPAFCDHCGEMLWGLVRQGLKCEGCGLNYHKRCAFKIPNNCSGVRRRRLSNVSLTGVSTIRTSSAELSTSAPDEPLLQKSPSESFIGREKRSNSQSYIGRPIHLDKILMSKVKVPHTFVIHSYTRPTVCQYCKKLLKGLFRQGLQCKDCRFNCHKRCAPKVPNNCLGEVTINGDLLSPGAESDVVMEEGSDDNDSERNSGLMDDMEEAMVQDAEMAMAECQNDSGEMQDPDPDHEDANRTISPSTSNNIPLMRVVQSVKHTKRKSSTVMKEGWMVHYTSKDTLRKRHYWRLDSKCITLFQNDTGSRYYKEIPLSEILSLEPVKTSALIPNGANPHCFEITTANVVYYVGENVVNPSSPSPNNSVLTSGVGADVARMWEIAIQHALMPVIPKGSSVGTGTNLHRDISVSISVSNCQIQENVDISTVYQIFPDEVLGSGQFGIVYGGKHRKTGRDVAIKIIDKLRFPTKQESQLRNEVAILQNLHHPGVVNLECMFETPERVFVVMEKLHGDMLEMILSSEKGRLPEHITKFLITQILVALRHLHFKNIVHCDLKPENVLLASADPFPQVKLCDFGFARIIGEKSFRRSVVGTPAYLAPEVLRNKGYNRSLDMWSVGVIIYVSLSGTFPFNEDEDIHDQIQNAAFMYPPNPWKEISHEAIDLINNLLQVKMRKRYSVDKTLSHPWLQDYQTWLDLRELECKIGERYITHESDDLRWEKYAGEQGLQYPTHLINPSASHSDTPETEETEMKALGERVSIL
Briefly: Residual activity of human PKCmu at 1 uM relative to control.

The source of these data is ChEMBL document CHEMBL1139192, “Novel bis(indolyl)maleimide pyridinophanes that are potent, selective inhibitors of glycogen synthase kinase-3” (Bioorg Med Chem Lett, 2007).

Sequence of Platelet-derived growth factor receptor alpha (Homo sapiens) (P16234 whole entry): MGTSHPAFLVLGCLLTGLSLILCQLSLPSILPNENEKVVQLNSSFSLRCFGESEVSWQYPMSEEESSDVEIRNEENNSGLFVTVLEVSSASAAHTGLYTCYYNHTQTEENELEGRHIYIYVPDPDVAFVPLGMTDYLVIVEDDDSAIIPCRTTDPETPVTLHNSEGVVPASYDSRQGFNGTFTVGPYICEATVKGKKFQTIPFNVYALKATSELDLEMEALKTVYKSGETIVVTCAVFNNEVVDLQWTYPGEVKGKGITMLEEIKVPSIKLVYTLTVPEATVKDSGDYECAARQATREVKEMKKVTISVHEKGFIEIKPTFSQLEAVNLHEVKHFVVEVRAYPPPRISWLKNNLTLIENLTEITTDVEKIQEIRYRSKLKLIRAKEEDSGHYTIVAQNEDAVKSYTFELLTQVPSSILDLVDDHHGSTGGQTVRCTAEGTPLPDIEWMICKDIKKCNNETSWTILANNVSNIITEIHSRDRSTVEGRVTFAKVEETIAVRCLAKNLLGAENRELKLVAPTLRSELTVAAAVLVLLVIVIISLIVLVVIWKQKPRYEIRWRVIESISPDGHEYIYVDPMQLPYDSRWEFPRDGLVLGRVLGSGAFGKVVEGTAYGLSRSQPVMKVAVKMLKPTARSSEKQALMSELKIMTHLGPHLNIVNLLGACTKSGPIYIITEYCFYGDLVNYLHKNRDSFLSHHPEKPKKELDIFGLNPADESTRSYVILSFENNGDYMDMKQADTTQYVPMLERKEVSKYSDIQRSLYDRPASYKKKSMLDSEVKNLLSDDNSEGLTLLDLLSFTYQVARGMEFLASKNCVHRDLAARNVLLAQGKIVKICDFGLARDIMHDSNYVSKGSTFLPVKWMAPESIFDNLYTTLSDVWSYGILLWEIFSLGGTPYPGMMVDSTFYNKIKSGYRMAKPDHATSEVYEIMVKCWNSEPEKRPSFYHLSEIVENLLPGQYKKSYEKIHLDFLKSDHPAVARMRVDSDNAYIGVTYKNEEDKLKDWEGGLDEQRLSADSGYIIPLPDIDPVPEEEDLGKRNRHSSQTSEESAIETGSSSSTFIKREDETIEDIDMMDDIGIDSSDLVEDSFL
Sequence of ALK tyrosine kinase receptor (Homo sapiens) (Q9UM73 19-1620 limits assumed): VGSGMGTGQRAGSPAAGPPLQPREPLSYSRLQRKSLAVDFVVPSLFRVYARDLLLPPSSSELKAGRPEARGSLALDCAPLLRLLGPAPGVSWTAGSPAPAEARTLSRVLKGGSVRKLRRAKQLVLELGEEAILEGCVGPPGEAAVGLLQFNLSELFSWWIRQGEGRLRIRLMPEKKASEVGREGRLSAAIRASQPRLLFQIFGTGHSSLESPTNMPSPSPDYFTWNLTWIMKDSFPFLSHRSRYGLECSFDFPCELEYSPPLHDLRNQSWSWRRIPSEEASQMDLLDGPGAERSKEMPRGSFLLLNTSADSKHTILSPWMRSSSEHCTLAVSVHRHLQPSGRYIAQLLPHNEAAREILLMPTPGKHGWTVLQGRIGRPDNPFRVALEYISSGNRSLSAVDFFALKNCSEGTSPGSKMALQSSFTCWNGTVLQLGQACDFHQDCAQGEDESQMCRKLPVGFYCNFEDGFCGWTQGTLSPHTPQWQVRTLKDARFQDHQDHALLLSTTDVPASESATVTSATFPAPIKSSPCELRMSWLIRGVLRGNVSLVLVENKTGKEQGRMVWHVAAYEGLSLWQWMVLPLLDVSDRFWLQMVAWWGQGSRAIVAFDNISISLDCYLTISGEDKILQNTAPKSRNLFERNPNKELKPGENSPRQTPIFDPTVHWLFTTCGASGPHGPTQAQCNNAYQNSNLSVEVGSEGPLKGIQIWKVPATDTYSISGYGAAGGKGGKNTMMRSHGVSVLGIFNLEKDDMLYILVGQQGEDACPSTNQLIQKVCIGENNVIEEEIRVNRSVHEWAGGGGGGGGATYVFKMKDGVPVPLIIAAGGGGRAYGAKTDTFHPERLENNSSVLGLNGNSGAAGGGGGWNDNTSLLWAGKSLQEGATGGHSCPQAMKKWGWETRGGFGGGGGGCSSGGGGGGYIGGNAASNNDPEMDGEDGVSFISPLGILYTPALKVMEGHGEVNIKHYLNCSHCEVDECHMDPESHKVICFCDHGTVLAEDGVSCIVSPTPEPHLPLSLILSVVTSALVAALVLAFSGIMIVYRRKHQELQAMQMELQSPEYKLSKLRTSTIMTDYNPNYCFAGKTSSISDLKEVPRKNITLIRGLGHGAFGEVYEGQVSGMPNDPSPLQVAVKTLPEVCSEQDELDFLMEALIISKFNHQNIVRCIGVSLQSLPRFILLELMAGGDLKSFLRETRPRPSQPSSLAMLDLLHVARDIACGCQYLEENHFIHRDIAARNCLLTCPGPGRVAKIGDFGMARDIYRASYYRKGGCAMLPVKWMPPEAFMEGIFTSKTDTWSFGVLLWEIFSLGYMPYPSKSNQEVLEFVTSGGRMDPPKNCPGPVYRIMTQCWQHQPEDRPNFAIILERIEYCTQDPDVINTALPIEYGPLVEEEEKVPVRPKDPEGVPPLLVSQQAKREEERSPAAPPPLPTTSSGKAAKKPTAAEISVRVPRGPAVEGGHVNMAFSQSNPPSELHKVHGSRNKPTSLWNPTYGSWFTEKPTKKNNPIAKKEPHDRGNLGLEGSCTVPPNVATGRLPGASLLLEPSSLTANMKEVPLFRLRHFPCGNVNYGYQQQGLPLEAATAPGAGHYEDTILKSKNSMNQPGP

On to `CN(C)c1cc2cc(n1)CCCn1cc(c3ccccc31)C1=C(C(=O)NC1=O)c1cn(c3ccccc13)CCC2`, for which the residual activity in assay [1] was 55%; in assay [2], 84%; in assay [3] it was 96%; in assay [4], 124%; in assay [5], 103%; in assay [6] it was 119%. The residual activity in assay [7] worked out at 118%.
`O=C1NC(=O)C2=C1c1cn(c3ccccc13)CCCc1ccc(c(N3CCCC3)n1)CCCn1cc2c2ccccc21`: the residual activity is 74% in assay [1]; 86% in assay [2]; 102% in assay [3]; 130% in assay [4]; 104% in assay [5]; 113% in assay [6]. Besides, in assay [7], the residual activity worked out at 113%.
In the case of `O=C1NC(=O)C2=C1c1cn(c3ccccc13)CCCc1cc(nc(N3CCCC3)c1)CCCn1cc2c2ccccc21`, the residual activity came out at 58% in assay [1]; 100% in assay [2]; 101% in assay [3]; 125% in assay [4]; 107% in assay [5]; 126% in assay [6]. Also, in assay [7], the residual activity was determined as 118%.
As to `CN(C)c1nc2ccc1CCCn1cc(c3ccccc31)C1=C(C(=O)NC1=O)c1cn(c3ccccc13)CC2`, the residual activity turned out to be 103% in assay [1]; 103% in assay [2]; 88% in assay [3]; 128% in assay [4]; 110% in assay [5]; 107% in assay [6]. Moreover, in assay [7], the residual activity is 110%.
